The subject of one assay is HPK1 pSLP76 (Ser376). Description: Cellular assay phospho-SLP-76 (Ser376). The settings on record: read-out: HPK1 pSLP76 IC50. Type of assay: cell-based, human. The method, boiled down:
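Jurkat (human) and EL-4 (mouse) cells preincubated 60 min with compound, then stimulated with αCD3/αCD28 Dynabeads at 37 °C (Jurkat 15 min; EL-4 30 min). SLP76 Ser376 phosphorylation in lysate read by AlphaLISA SureFire (Jurkat) or HTRF (EL-4, 19 h); IC50 from 10-point dilutions.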

The target of assay [1] is full-length human HPK1 (MAP4K1) (Homo sapiens (Human), UniProt Q92918). As to the kind of experiment: HPK1 kinase assay (biochemical, ADP-Glo). The settings on record: read-out: HPK1 enzymatic IC50. The method, boiled down: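 GST-tagged full-length human HPK1 from Sf21 baculovirus cells (3.2 nM in enzyme mix; 50 mM HEPES pH 7.5, 10 mM MgCl2) was preincubated 15 min at RT with compound. Reaction was started with Start-Mix (10 μM ATP, 3.235 μM MBP) and run 120 min. ADP was read by ADP-Glo luminescence; IC50 came from 10-point % inhibition.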

The mark [2] stands for this setting: SLP76 Ser376 phosphorylation after αCD3/αCD28 stimulation, Jurkat (human) or EL-4 (mouse) cells, table does not say which.
Setting [3] is: GST-HPK1 3.2 nM, 10 μM ATP, MBP substrate, ADP-Glo.

Read-outs that look alike come from different tables or passages of the source.

Sequence of full-length human HPK1 (MAP4K1) (Q92918 whole entry): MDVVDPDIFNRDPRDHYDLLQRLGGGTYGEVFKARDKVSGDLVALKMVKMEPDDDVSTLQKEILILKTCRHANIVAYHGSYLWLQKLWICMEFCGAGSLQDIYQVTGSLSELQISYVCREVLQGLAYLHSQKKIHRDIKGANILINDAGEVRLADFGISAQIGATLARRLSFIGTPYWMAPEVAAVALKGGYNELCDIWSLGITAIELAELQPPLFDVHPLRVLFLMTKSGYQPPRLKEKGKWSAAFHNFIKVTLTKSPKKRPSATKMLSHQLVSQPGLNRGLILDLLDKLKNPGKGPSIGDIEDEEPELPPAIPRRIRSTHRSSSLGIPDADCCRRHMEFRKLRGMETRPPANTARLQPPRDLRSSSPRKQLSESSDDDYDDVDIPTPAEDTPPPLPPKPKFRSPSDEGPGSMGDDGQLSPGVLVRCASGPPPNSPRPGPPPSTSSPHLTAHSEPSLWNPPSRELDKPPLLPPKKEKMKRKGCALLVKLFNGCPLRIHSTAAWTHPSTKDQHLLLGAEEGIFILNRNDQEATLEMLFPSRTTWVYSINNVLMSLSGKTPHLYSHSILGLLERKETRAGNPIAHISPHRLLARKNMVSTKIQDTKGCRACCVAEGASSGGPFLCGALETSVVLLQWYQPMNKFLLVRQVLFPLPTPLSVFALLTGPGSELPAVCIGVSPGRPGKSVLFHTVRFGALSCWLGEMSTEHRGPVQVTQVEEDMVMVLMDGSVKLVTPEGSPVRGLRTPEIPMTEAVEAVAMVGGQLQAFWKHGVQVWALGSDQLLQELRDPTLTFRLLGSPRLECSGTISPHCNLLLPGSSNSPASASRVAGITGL

Usually IC50 stands for the concentration needed to halve the response being measured. On to `NC(=O)c1cc(-c2ccc(OCC3(O)CC3)cc2)nc2c(N[C@@H]3CNC[C@@H](F)C3)ncnc12` [Example 34, 4-(((3S,5S)-5-fluoropiperidin-3-yl)amino)-6-(4-((1-hydroxycyclopropyl)methoxy)phenyl)pyrido[3,2-d]pyrimidine-8-carboxamide], for which the IC50 is below 500 nM in the assay on HPK1 pSLP76 (Ser376) (Homo sapiens, Jurkat) and below 100 nM in assay [1].
Turning to `NC(=O)c1cc(-c2cnn(CC(F)F)c2)nc2c(N[C@H]3CCCNC3)ncnc12` [Example 81, 6-[1-(2,2-difluoroethyl)-1H-pyrazol-4-yl]-4-{[(3S)-piperidin-3-yl]amino}pyrido[3,2-d]pyrimidine-8-carboxamide], the IC50 with HPK1 pSLP76 (Ser376) (setting [2]) was above 1000 nM; in assay [1] (setting [3]), below 100 nM.
Take `C[C@@H](O)COc1ccc(-c2cc(C(N)=O)c3ncnc(N[C@H]4CCCNC4)c3n2)cc1` [Example 51, 6-(4-((R)-2-hydroxypropoxy)phenyl)-4-(((S)-piperidin-3-yl)amino)pyrido[3,2-d]pyrimidine-8-carboxamide]: the IC50 with HPK1 pSLP76 (Ser376) (Homo sapiens, Jurkat) was below 500 nM; in assay [1], below 100 nM.
Turning to `CC1(F)CN(Cc2ccc(-c3cc(C(N)=O)c4ncnc(N[C@H]5CCCNC5)c4n3)cc2)C1` [Example 56, (S)-6-(4-((3-fluoro-3-methylazetidin-1-yl)methyl)phenyl)-4-(piperidin-3-ylamino)pyrido[3,2-d]pyrimidine-8-carboxamide], the values for the 50% inhibitory concentration (IC50) (in the assay on HPK1 pSLP76 (Ser376) (setting [2]); in assay [1] (setting [3])) were below 500 nM and below 100 nM, respectively.
For the compound `NC(=O)c1cc(-c2ccc(C3(O)CC3)cc2)nc2c(N[C@H]3CCCNC3)ncnc12` [Example 58, 6-[4-(1-hydroxycyclopropyl)phenyl]-4-[(3S)-piperidin-3-ylamino]pyrido[3,2-d]pyrimidine-8-carboxamide], the concentration for half-maximal inhibition (IC50) is below 500 nM in the assay with HPK1 pSLP76 (Ser376) (setting [2]) and below 100 nM in assay [1] (setting [3]).
The corresponding values for `COCCOc1ccc(-c2cc(C(N)=O)c3ncnc(N[C@@H]4CNCC[C@H]4F)c3n2)cc1` [Example 48, 4-(((3R,4R)-4-fluoropiperidin-3-yl)amino)-6-(4-(2-methoxyethoxy)phenyl)pyrido[3,2-d]pyrimidine-8-carboxamide] are below 500 nM and below 100 nM.
For the compound `NC(=O)c1cc(-c2ccc(CN3CCOCC3)cc2)nc2c(N[C@@]3(c4ccccc4)CCCNC3)ncnc12` [Example 18], the IC50 in the assay on HPK1 pSLP76 (Ser376) (setting [2]) was above 1000 nM; in assay [1] (setting [3]), 100 to 1000 nM.
Consider `NC(=O)c1cc(-c2ccc(OC(F)(F)F)cc2)nc2c(N[C@H]3CCCNC3)ncnc12` [Example 31, 4-[(3S)-piperidin-3-ylamino]-6-[4-(trifluoromethoxy)phenyl]pyrido[3,2-d]pyrimidine-8-carboxamide], for which the IC50 in the assay on HPK1 pSLP76 (Ser376) (setting [2]) was 500 to 1000 nM; in assay [1] (setting [3]) it was below 100 nM.
On the same counts, the results for `CC(C)(O)COc1ccc(-c2cc(C(N)=O)c3ncnc(N[C@@H]4CNCC[C@H]4F)c3n2)cc1` [Example 42, 4-(((3R,4R)-4-fluoropiperidin-3-yl)amino)-6-(4-(2-hydroxy-2-methylpropoxy)phenyl)pyrido[3,2-d]pyrimidine-8-carboxamide] are below 500 nM and below 100 nM.
On the same counts, the results for `NC(=O)c1cc(-c2cc(F)c(OCC3(O)CCOCC3)c(F)c2)nc2c(N[C@@H]3CNC[C@@H](F)C3)ncnc12` [Example 37, 6-(3,5-difluoro-4-((4-hydroxytetrahydro-2H-pyran-4-yl)methoxy)phenyl)-4-(((3S,5S)-5-fluoropiperidin-3-yl)amino)pyrido[3,2-d]pyrimidine-8-carboxamide] are below 500 nM and below 100 nM.
On the same counts, the results for `COCCOc1ccc(-c2cc(C(N)=O)c3ncnc(N[C@H]4CCCNC4)c3n2)c(C#N)c1` [Example 46, (S)-6-(2-cyano-4-(2-methoxyethoxy)phenyl)-4-(piperidin-3-ylamino)pyrido[3,2-d]pyrimidine-8-carboxamide] are above 1000 nM and below 100 nM.

For the origin of these results see patent US20250320228A1, “PYRIDO[3,2-D]PYRIMIDINES AS HPK1 INHIBITORS” (Merck Patent GmbH, priority 2022, published 2025).
